Literature values, collected in patent US7193101B2, “Esters with antimicrobial, bioresistant and fungal resistant properties” (TPAT IP, priority 2004, dated 2007).

What was measured:
[1] = system: various strains of both gram positive and gram negative bacteria
[2] = prior art U.S. Pat. No. 5,866,511
nematodes = conditions: prior art U.S. Pat. No. 5,013,762

## O=[N+]([O-])C(Br)(CO)CO [BNPD, 2-bromo-2-nitro-propane-1,3-diol]
fungi
  antifungal activity: antifungal
[1]; average over gram positive and gram negative strains
  average minimum inhibitory concentration: around 25 ppm
[1]; various strains of gram positive and gram negative bacteria
  effective concentration against bacteria: 1–50 ppm

## O=[N+]([O-])CBr [bromonitromethane]
[2]
  effectiveness as a general biocide: effective
nematodes
  effectiveness for the treatment of nematodes in the soil: effective
